Measurements reported in US11180744B2, “Acinetobacter lysins” (priority 2014, dated 2021).
Several values for one entry are separate records, joined by “and”; a condition that tells them apart may be missing. Equal entries are not always repeated. Where two headings read alike, the source gives them in different places. Where no end group is shown, it is not given here.

What was measured:
[1] = system: A. baumannii strains #1791 and ATCC17978; experiment: microbe, parasite or virus in culture; conditions: Acinetobacter baumannii, ATCC17978, 24 h, 37° C.
[2] = in vitro; type: cell-based; conditions: B cell line
[3] = system: B cell line; experiment: in vitro; type: cell-based
[4] = system: Human B-cells; experiment: B cell survival, CellTiter 96 Non-Radioactive Cell Proliferation Assay; conditions: highest concentration tested (80 μM); 1 hr at 37° C.
[5] = system: red blood cells (RBC); experiment: Hemolysis, release of hemoglobin (OD405); conditions: 80-0.3125 μM; 1 hour at 37° C.; Triton X-100 positive control
[6] = system: A. baumannii strains #1791, S5 and ATCC17978; experiment: In vitro bactericidal activities of peptides (Example 10); type: cell-based
[7] = system: A. baumannii strains #1791 and ATCC17978; conditions: Mueller-Hinton broth (pH 7.9), 37° C., 24 hour
[8] = system: A. baumannii 1791 biofilm; experiment: In vitro treatment of catheter adherent A. baumannii 1791 biofilm with F307
[9] = system: A. baumannii clinical isolates; experiment: Crude lysate clearing zones on A. baumannii soft agar plates; conditions: thirteen A. baumannii clinical isolates
[10] = system: A. baumannii; experiment: Survival of mice after lethal injection of A. baumannii; type: in vivo, C57BL/6 mice; conditions: 1 mg of F307 IP two hours after 10^8 CFU IP; 14 days after infection
Procedure: Twenty-two C57BL/6 mice were given 10^8 CFU of A. baumannii strain intraperitoneally (IP). Two hours later, two mice were euthanized and organs examine as described below, ten mice injected IP with 1 mg of F307 and ten mice were injected IP with control vehicle.

[11] = system: A. baumannii strain 1791 biofilm; experiment: Mouse catheter model; type: in vivo, BALB/C mice; conditions: 250 μl of F307 (1 mg) injected into catheter under the dermis, repeated after 4 hours
Procedure: Mouse Catheter Model: Several 3 inch section of catheter tubing were seeded (1:1000) with A. baumannii strain 1791. A. baumannii biofilms were formed as described above. The back of twenty BALB/C mice were shaved, their backs were sterilized, and then an incision was made to place a 1 inch section of the catheter with a biofilm already formed under the dermis of the back. The incisions were then stapled shut. After 24 hours, 250 μl of F307 (1 mg) (n=10) or 250 μl control vehicle (n=10) was injected directly into the catheter that was under the dermis of the mouse. The treatment was repeated after 4 hours. After 3 hours the catheters were removed from the mice, and assayed as described in Experiment 4.

[12] = pH 7.9, strain #1791, Mueller-Hinton broth (pH 7.9)
[13] = pH 7.9, strain ATCC17978, Mueller-Hinton broth (pH 7.9)

CC(C)(O/N=C(\C(=O)N[C@@H]1C(=O)N2C(C(=O)[O-])=C(C[n+]3ccccc3)CS[C@H]12)c1csc(N)n1)C(=O)O [Ceftazidime]
MIC [1, 12]: 250 µg/mL and 457 µM | MIC [1, 13]: 12 µg/mL and 21.9 µM

C[C@H]1COc2c(N3CCN(C)CC3)c(F)cc3c(=O)c(C(=O)O)cn1c23 [Levofloxacin]
MIC [1, 12]: 6 µg/mL and 16.6 µM | MIC [1, 13]: ≤ 0.1 µg/mL and 0.3 µM

NAKDYKGAAAEFPKWNKAGGRVLAGLVKRRK [P307]
viability at 5 min, 2 μg [2]: 95.2% | viability at 5 min, 20 μg [2]: 97.2% | viability at 5 min, 200 μg [2]: 94.6% | viability at 0.5 h, 2 μg [2]: 76.9% | viability at 0.5 h, 20 μg [2]: 88.6% | viability at 1 h, 2 μg [2]: 89.3% | viability at 1 h, 20 μg [2]: 89.7% | viability at 1 h, 200 μg [2]: 71.4% | viability at 2 h, 2 μg [2]: 92.5% | viability at 2 h, 20 μg [2]: 90.3% | viability at 2 h, 200 μg [2]: 71.9% | viability at 3 h, 2 μg [2]: 93.8% | viability at 3 h, 20 μg [2]: 91% | viability at 3 h, 200 μg [2]: 58.6% | viability at 24 h, 2 μg [2]: 96.3% | viability at 24 h, 20 μg [2]: 94.2% | viability at 24 h, 200 μg [2]: 76.3% | effect on cell number of a B cell line [3]: only a slight effect on cell number

NAKDYKGAAAEFPKWNKAGGRVLAGLVKRRKSQSRESQC [P307SQ-8C]
viability of B cells [4]: remains the same as the buffer control | integrity of RBCs (hemolysis) [5]: not affected

P307AE-8: SEQ ID NO: 49: NAKDYKGAAAEFPKWNKAGGRVLAGLVKRRKAEMELFLK (P307AE-8)
decrease in viable bacteria ([6]; 50 μg/mL, 2 hours, room temperature): ~3.8 log-unit

P307CS-8: SEQ ID NO: 51: NAKDYKGAAAEFPKWNKAGGRVLAGLVKRRKCSQRQSES (P307CS-8)
activity of P307CS-8 compared with P307SQ-8C ([6]; scrambled last eight amino acids): comparable

Polymyxin B [reference compound]
MIC ([7]; strain #1791): 0.25 μg/mL and 0.19 μM | MIC ([7]; strain ATCC17978): 0.25 μg/mL and 0.19 μM

SQSRESQC (Ex) [reference compound]
bactericidal activity of SQSRESQC alone or combined with P307 ([6]; strains #1791 and S5, same molar concentration as 50 μg/mL P307): no activity

B1: F307: phage lysin polypeptide, SEQ ID NO: 1, 16 kDa (protein, listed as Acinetobacter baumannii)
chain: VKTSNPGVDLIKGFEGLRLKAYDDGVGVWTIGFGTIKYPNGVRVKKGDTCTESQAEEYLRNDLVVFESAINRLVKVPLNQNQFDALASFTYNLGEGNLSISTLLKKLNAKDYKGAAAEFPKWNKAGGRVLAGLVKRRKAEMELFLK
drop in the number of colony forming units ([8]; 3-day biofilm on catheter, after 30 minutes of treatment): ~4 log | CFU ([8]; 15 minutes F307 treatment): 9.0 × 10^4 CFU | CFU ([8]; 30 minutes F307 treatment): 6.0 × 10^3 CFU | percent of Acinetobacter strains lysed [9]: about 90% | survival [10]: 50% | reduction of bacterial counts compared with control [11]: approximately 2 logs
